Measurements from US9192611B2, “Formulations comprising methylthioninium chloride” (WisTa Laboratories Ltd., priority 2010, dated 2015).

What was measured:
[1] = background statement; cited from earlier work
[2] = Thermodynamic stability of MTC hydrates as a function of RH and temperature; settings: any T and RH; kinetically stable in a certain range

| Thermodynamic stability, in words [2] | SMILES | RH down to which high kinetic stability is observed [1] |
| --- | --- | --- |
| – | CN(C)c1ccc2nc3ccc(=[N+](C)C)cc-3sc2c1 [Form A, Methylthioninium chloride] | less than 20% |
| not thermodynamically stable | CN(C)c1ccc2nc3ccc(=[N+](C)C)cc-3sc2c1 [Form B, Methylthioninium chloride] | – |
